# According to patent US12391646B2, “Using adiponectin receptor agonists to treat inflammation and bone diseases in diabetes” (Trustees of Tufts College, priority 2020, dated 2025):
# Tests used:
# Assay type in all cases: cell-based
# [1] = tested on: LPS-induced Raw264.7 cells; assay: ELISA of IL-6 and IL-1β in supernatants of LPS-induced Raw264.7 cells; settings: AdipoAI 5 μM 24 h then LPS 6 h
# Method: (§1) FIG. 2 AdipoAI suppresses LPS-stimulated inflammatory responses in macrophages. (a) Raw264.7 cells or (b) BMMs were pretreated with APR (20 μM) or AdipoAI (5 μM) for 24 h followed by incubation with LPS (100 ng/mL) for additional 6 h for the measurement of IL-6 and IL-1β in supernatants by ELISA. Data were expressed as the mean±SEM at five biological independent experiments. One-way ANOVA test for multiple-group comparisons, * vs. LPS group, *P<0.05, significant differences between each indicated group. (c) PEMs were isolated from C57BL/6J mice (n=5 mice/group) were injected i.p. with ImL 4% thioglycolate solution or AdipoAI (25 mg/kg) for the measurement of IL-6 and IL-1β. The amounts of IL-6 and IL-1β in supernatant were measured by ELISA. Data were expressed as the mean±SEM (n=5). Two-tailed Student's t-test for two groups, *P<0.05, significant differences between each indicated group. (d-f) Impact of AdipoAI on basal (d) and LPS-induced expression of an array of proinflammatory cytokines, chemokines, and receptors (e,f) in Raw264.7 cells (4 groups and 3 biological replicates/group). Data analyses were performed according to the manufacturer's instructions with their web-based software package (www.qiagen.com/us/shop/genes-and-pathways/data-analysis-center overview-page/). […]
# [2] = tested on: LPS-stimulated Raw264.7 cells; assay: mRNA microarray analysis of LPS-stimulated Raw264.7 cells
# Method: as §1, with “overview-page/). (g) Differentiated expressed genes annotated to a gene-ontology term and example genes by gene-ontology-enrichment analysis of each component. (brown: LPS vs control; black: AdipoAI+LPS vs LPS). (h) Differentially expressed M1 and M2 genes are shown according to the microarray databases.” for “overview-page/).”
# FIG. 7 AdipoAI regulated methylation level of the c-Maf gene promoter to suppress c-Maf activation in LPS-induced macrophages. […] (b) mRNA levels of c-Maf were determined by qPCR in Raw264.7 cells, BMMs and PEMs treated with AdiopoAI or LPS. Data were expressed as the mean±SEM at five […] biological independent experiments. […] (c) c-Maf mRNA expression levels in lung, spleen, liver and WAT of LPS-induced endotoxemia mice were measured by qRT-PCR and normalized with GAPDH mRNA levels. Data are expressed as mean±SEM (n=6). […]
# [3] = tested on: APPL1/MyD88 interaction; assay: Co-immunoprecipitation of AdipoR1, APPL1 and MyD88 in Raw264.7 cells; settings: AdipoAI (5 μM) and LPS-treated cells compared to control cells
# Method: FIG. 6 Involvement of APPL1/MyD88 interaction in the anti-inflammatory effects of AdipoAI in macrophages. (a) RAW 264.7 cells were transfected with siRNA targeting MyD88, c-Maf or scrambled control siRNA for 24 h, followed by stimulation with LPS for 6 h. Transfection efficiency of siRNA and mRNA expression levels of proinflammatory cytokines were measured by qPCR and normalized with GAPDH mRNA levels. Data were expressed as the mean±SEM at five biological independent experiments. One-way ANOVA test for multiple-group comparisons, * vs. LPS+Scrambled group, *P<0.05, significant differences between each indicated group. ns, not significant. (b) Raw264.7 cells were transfected with siRNA targeting MyD88 or scrambled control siRNA for 24 h, followed by stimulation with LPS for 30 min for measurement of related proteins. Representative images are shown along with β-actin as an internal loading control and densitometric analysis. Densitometry values-MyD88: 1.00, 0.24, 1.20, 0.33; pIRAK4: 1.00, 0.00; p-P38: 1.00, 0.11. […] Proteins immunoprecipitated with the anti-MyD88 antibody were analyzed by immunoblotting with antibodies for MyD88, APPL1, and AdipoR1. […]
# The RAW 264.7 macrophages were seeded at a density of 6×10^6 cells per 100 mm dish. […] The immunoprecipitates were washed with lysis buffer and further analyzed by polyacrylamide gel electrophoresis and Western blot analyses. […]
structure (smiles),measurement,setting,value
COc1ccc(CN2CCC(NC(=O)COc3ccc(C(=O)c4ccc(Cl)cc4)cc3)CC2)cc1 [Compound 3],IL-6 and IL-1β protein levels (ELISA),[1],decreased IL-6 and IL-1β protein levels
same,expression of M1 or M2 macrophage-related genes,[2]; LPS-induced Raw264.7 cells,did not alter the expression of M1 or M2 macrophage-related genes
same,"expression of proinflammatory cytokines, chemokines and receptors (microarray)",[2]; LPS-stimulated Raw264.7 cells,decreased the expression of the same genes to near basal levels
same,c-Maf mRNA levels (microarray),[2]; LPS-treated Raw264.7 cells,inhibited
same,interaction of APPL1 with MyD88 (Co-IP),[3],the interaction of APPL1 with MyD88 was increased
